Experimental data taken from ChEMBL document CHEMBL3885881, “DrugMatrix”.

Species on record: Rattus norvegicus
Experiment: DrugMatrix - Regimen: Daily Repeat
Type: toxicity, organism-based, Sprague-Dawley
Design: regimen Daily Repeat, gender Male, age 6-8 weeks
Settings: in vivo, po, route oral GAVAGE, vehicle 100 % WATER; for ABSOLUTE BASOPHIL / ABSOLUTE EOSINOPHIL / ABSOLUTE LYMPHOCYTE / ABSOLUTE MONOCYTE / ABSOLUTE SEGMENTED NEUTROPHIL / BASOPHIL / EOSINOPHIL / ERYTHROCYTE COUNT / HEMATOCRIT / HEMOGLOBIN / LEUKOCYTE COUNT / LYMPHOCYTE / MEAN CORPUSCULAR HEMOGLOBIN / MEAN CORPUSCULAR HEMOGLOBIN CONCENTRATION / MEAN CORPUSCULAR VOLUME / MONOCYTE / NEUTROPHIL / NUCLEATED RED BLOOD CELLS / PLATELET COUNT: tissue Blood; for ALANINE AMINOTRANSFERASE / ALBUMIN / ALKALINE PHOSPHATASE / ASPARTATE AMINOTRANSFERASE / BLOOD UREA NITROGEN / CARBON DIOXIDE / CHLORIDE / CHOLESTEROL / CREATINE PHOSPHOKINASE / CREATININE / GLUCOSE / LACTATE DEHYDROGENASE / LIPASE / PHOSPHORUS / POTASSIUM / SODIUM / TOTAL BILIRUBIN / TOTAL PROTEIN / URIC ACID: tissue Plasma
[1] = 0 mg/kg, 72 h, dose level Control, time 3 day
[2] = 0 mg/kg, 120 h, dose level Control, time 5 day
[3] = 120 mg/kg, 72 h, dose level Low, time 3 day

In the case of Cc1onc(-c2ccccc2Cl)c1C(=O)N[C@@H]1C(=O)N2[C@@H]1SC(C)(C)[C@@H]2C(=O)O [CLOXACILLIN], the “ABSOLUTE BASOPHIL” value [1] is reported as 0 CELLS/uL, the “ABSOLUTE EOSINOPHIL” value [1] is reported as 40 CELLS/uL and the “ABSOLUTE LYMPHOCYTE” value [1] is reported as 13599.5 CELLS/uL. For the same molecule, the “ABSOLUTE MONOCYTE” value [1] was 239.33 CELLS/uL, the “ABSOLUTE SEGMENTED NEUTROPHIL” value [1] was 1021.17 CELLS/uL and the BASOPHIL [1] was 0%. For the same molecule, the EOSINOPHIL [1] was 0.33%, the “ERYTHROCYTE COUNT” value [1] was 5.71 x10E6/uL and the HEMATOCRIT [1] was 36.35%. The HEMOGLOBIN [1] was 14.05 G/DL, the “LEUKOCYTE COUNT” value [1] was 14.9 x10E3/uL and the LYMPHOCYTE [1] was 91%. The “MEAN CORPUSCULAR HEMOGLOBIN” value [1] was 24.62 pg, the “MEAN CORPUSCULAR HEMOGLOBIN CONCENTRATION” value [1] was 38.65 G/DL and the “MEAN CORPUSCULAR VOLUME” value [1] was 63.7 fL. For the same molecule, the MONOCYTE [1] was 1.5%, the NEUTROPHIL [1] was 7.17% and the “NUCLEATED RED BLOOD CELLS” value [1] was 0.33 /100WBC. The “PLATELET COUNT” value [1] was 1225.5 x10E3/uL, the “ALANINE AMINOTRANSFERASE” value [1] was 48.5 u/L and the ALBUMIN [1] was 4.18 G/DL. For the same molecule, the “ALKALINE PHOSPHATASE” value [1] was 390.83 u/L, the “ASPARTATE AMINOTRANSFERASE” value [1] was 89 u/L and the “BLOOD UREA NITROGEN” value [1] was 14.83 mg/dL. The “CARBON DIOXIDE” value [1] was 24.83 mmol/L, the CHLORIDE [1] was 100.83 MEQ/L and the CHOLESTEROL [1] was 72.5 mg/dL. For the same molecule, the “CREATINE PHOSPHOKINASE” value [1] was 503 u/L, the CREATININE [1] was 0.2 mg/dL and the GLUCOSE [1] was 163 mg/dL. For the same molecule, the “LACTATE DEHYDROGENASE” value [1] was 316.83 u/L, the LIPASE [1] was 9.83 u/L and the PHOSPHORUS [1] was 11.57 mg/dL. The POTASSIUM [1] was 6.16 MEQ/L, the SODIUM [1] was 142.62 MEQ/L and the “TOTAL BILIRUBIN” value [1] was 0.2 mg/dL. The “TOTAL PROTEIN” value [1] was 5.8 G/DL, the “URIC ACID” value [1] was 1.65 mg/dL and the “ABSOLUTE BASOPHIL” value [2] was 0 CELLS/uL. For the same molecule, the “ABSOLUTE EOSINOPHIL” value [2] was 21 CELLS/uL, the “ABSOLUTE LYMPHOCYTE” value [2] was 14288.5 CELLS/uL and the “ABSOLUTE MONOCYTE” value [2] was 205.33 CELLS/uL. The “ABSOLUTE SEGMENTED NEUTROPHIL” value [2] was 968.5 CELLS/uL, the BASOPHIL [2] was 0% and the EOSINOPHIL [2] was 0.17%. For the same molecule, the “ERYTHROCYTE COUNT” value [2] was 5.83 x10E6/uL, the HEMATOCRIT [2] was 36.53% and the HEMOGLOBIN [2] was 14.4 G/DL. The “LEUKOCYTE COUNT” value [2] was 15.48 x10E3/uL, the LYMPHOCYTE [2] was 92% and the “MEAN CORPUSCULAR HEMOGLOBIN” value [2] was 24.72 pg. The “MEAN CORPUSCULAR HEMOGLOBIN CONCENTRATION” value [2] was 39.43 G/DL, the “MEAN CORPUSCULAR VOLUME” value [2] was 62.68 fL and the MONOCYTE [2] was 1.33%. For the same molecule, the NEUTROPHIL [2] was 6.5%, the “NUCLEATED RED BLOOD CELLS” value [2] was 0.17 /100WBC and the “PLATELET COUNT” value [2] was 1280.5 x10E3/uL. The “ALANINE AMINOTRANSFERASE” value [2] was 50 u/L, the ALBUMIN [2] was 4.28 G/DL and the “ALKALINE PHOSPHATASE” value [2] was 380.17 u/L. The “ASPARTATE AMINOTRANSFERASE” value [2] was 82.67 u/L, the “BLOOD UREA NITROGEN” value [2] was 15.33 mg/dL and the “CARBON DIOXIDE” value [2] was 27.17 mmol/L. The CHLORIDE [2] was 100.33 MEQ/L, the CHOLESTEROL [2] was 60.67 mg/dL and the “CREATINE PHOSPHOKINASE” value [2] was 441.5 u/L. For the same molecule, the CREATININE [2] was 0.16 mg/dL, the GLUCOSE [2] was 146 mg/dL and the “LACTATE DEHYDROGENASE” value [2] was 189.33 u/L. It also gave an LIPASE [2] of 9.17 u/L, a PHOSPHORUS [2] of 11.67 mg/dL and a POTASSIUM [2] of 6.86 MEQ/L. The SODIUM [2] was 142.33 MEQ/L, the “TOTAL BILIRUBIN” value [2] was 0.2 mg/dL and the “TOTAL PROTEIN” value [2] was 6.12 G/DL. The “URIC ACID” value [2] was 1.82 mg/dL, the “ABSOLUTE BASOPHIL” value [3] was 0 CELLS/uL and the “ABSOLUTE EOSINOPHIL” value [3] was 0 CELLS/uL. The “ABSOLUTE LYMPHOCYTE” value [3] was 13421.33 CELLS/uL, the “ABSOLUTE MONOCYTE” value [3] was 92.33 CELLS/uL and the “ABSOLUTE SEGMENTED NEUTROPHIL” value [3] was 1186.33 CELLS/uL. The BASOPHIL [3] was 0%, the EOSINOPHIL [3] was 0% and the “ERYTHROCYTE COUNT” value [3] was 5.89 x10E6/uL. For the same molecule, the HEMATOCRIT [3] was 36%, the HEMOGLOBIN [3] was 13.83 G/DL and the “LEUKOCYTE COUNT” value [3] was 14.7 x10E3/uL. For the same molecule, the LYMPHOCYTE [3] was 90.67%, the “MEAN CORPUSCULAR HEMOGLOBIN” value [3] was 23.47 pg and the “MEAN CORPUSCULAR HEMOGLOBIN CONCENTRATION” value [3] was 38.4 G/DL. The “MEAN CORPUSCULAR VOLUME” value [3] was 61.07 fL, the MONOCYTE [3] was 0.67% and the NEUTROPHIL [3] was 8.67%. For the same molecule, the “NUCLEATED RED BLOOD CELLS” value [3] was 0 /100WBC, the “PLATELET COUNT” value [3] was 1271.67 x10E3/uL and the “ALANINE AMINOTRANSFERASE” value [3] was 68 u/L. For the same molecule, the ALBUMIN [3] was 4.1 G/DL, the “ALKALINE PHOSPHATASE” value [3] was 359 u/L and the “ASPARTATE AMINOTRANSFERASE” value [3] was 111 u/L. For the same molecule, the “BLOOD UREA NITROGEN” value [3] was 15.33 mg/dL, the “CARBON DIOXIDE” value [3] was 23 mmol/L and the CHLORIDE [3] was 103 MEQ/L. For the same molecule, the CHOLESTEROL [3] was 79.33 mg/dL, the “CREATINE PHOSPHOKINASE” value [3] was 603.33 u/L and the CREATININE [3] was 0.17 mg/dL. For the same molecule, the GLUCOSE [3] was 150.33 mg/dL, the “LACTATE DEHYDROGENASE” value [3] was 726 u/L and the LIPASE [3] was 9 u/L. For the same molecule, the PHOSPHORUS [3] was 13.1 mg/dL, the POTASSIUM [3] was 6.07 MEQ/L and the SODIUM [3] was 143.5 MEQ/L. The “TOTAL BILIRUBIN” value [3] was 0.17 mg/dL, the “TOTAL PROTEIN” value [3] was 5.77 G/DL and the “URIC ACID” value [3] was 1.8 mg/dL.
